Literature values as cited in patent US20260009079A1, “BIOMARKERS OF PREGNANCY LOSS” (The University of Warwick, priority 2022, published 2026).

Tested on: bone marrow-derived MSCs
Conditions: given over 3 menstrual cycles; previously reported (Tewary et al., 2020)

N[C@@H](CC(=O)N1CCn2c(nnc2C(F)(F)F)C1)Cc1cc(F)c(F)cc1F [sitagliptin]
recruitment of bone marrow-derived MSCs: increases
